Values after ≈ are worked out from the molar mass of the structure shown. Counter-ions that a name gives are not always drawn. Like-named read-outs stand apart in the source and are kept apart here.
Tests used:
[1] = system: MDCK cells; assay: crystal violet cell adhesion (CVCA) cell toxicity assay
[2] = Solubility in water; type: physicochemical; conditions: for solubility (in words): water or physiological buffers; for solubility: water, 21° C.
[3] = Canis lupus familiaris, MDCK, read-out: EC50 (μM), Active Compound

| melting point | SMILES | EC50 [1, 3] [µM] | also measured |
| --- | --- | --- | --- |
| > 250 °C | Cc1c2c(c(C)c(-c3ccccc3)c1-c1ccccc1)C(=O)N(c1ccc(O)c([N+](=O)[O-])c1)C2=O [BP-11, 2-(4-Hydroxy-3-nitrophenyl)-4,7-dimethyl-5,6-diphenyl-1H-isoindole-1,3(2H)-dione] |  |  |
| 113 to 115 °C | CC(=O)OC[C@H]1O[C@@H](Oc2ccc(N3C(=O)c4c(C)c(-c5ccccc5)c(-c5ccccc5)c(C)c4C3=O)cc2)[C@H](OC(C)=O)[C@@H](OC(C)=O)[C@@H]1OC(C)=O [BP-14, N-(4-O-(2,3,4,6-tetra-O-acetyl-β-D-glucopyranosyl)phenyl)-3,6-dimethyl-4,5-diphenyl-3,6-phthalimide] |  |  |
| 183 to 185 °C | Cc1c2c(c(C)c(-c3ccccc3)c1-c1ccccc1)C(=O)N(CCC(=O)NCCNC(=O)OC(C)(C)C)C2=O [BP-18, Tert-Butyl (2-(3-(4,7-dimethyl-1,3-dioxo-5,6-diphenylisoindolin-2-yl)propanamido)ethyl)carbamate] |  |  |
| 181 to 182 °C | Cc1c2c(c(C)c(-c3ccccc3)c1-c1ccccc1)C(=O)N(CCNC(=O)OC(C)(C)C)C2=O [BP-20, Tert-Butyl (2-(4,7-dimethyl-1,3-dioxo-5,6-diphenylisoindolin-2-yl)ethyl)carbamate] |  |  |
|  | Cc1c2c(c(C)c(-c3ccccc3)c1-c1ccccc1)C(=O)N(CCN)C2=O [BP-21, 2-(4,7-Dimethyl-1,3-dioxo-5,6-diphenylisoindolin-2-yl)ethanaminium 2,2,2-trifluoroacetate, reference compound] |  | EC50 ([1]; Canis lupus familiaris, MDCK, read-out: EC50 (μM), Inactive Compound): 21 µM |
|  | Cc1c2c(c(C)c(-c3ccccc3)c1-c1ccccc1)C(=O)N(CCNCCN)C2=O [BP-23, 2-(2-(2-Aminoethyl)aminoethyl)-4,7-dimethyl-5,6-diphenyl-1H-isoindole-1,3,8(2H)-diione Bis-trifluoroacetate Salt] |  | EC50 ([1]; read-out: EC50 (μM), Inactive Compound, MDCK cells, inactive debromo or CO depleted analogues, 37° C.): > 100 µM |
|  | CN(C)C(=O)[C@@H](N)CCCCN1C(=O)C2C3(C)C(=O)C(C)(C(c4ccccc4)=C3c3ccccc3)C2(Br)C1=O (stereo partly drawn) [oCOM-36, N,N-Dimethyl (2S)-2-amino-6-(3a-bromo-4,7-dimethyl-1,3,8-trioxo-5,6-diphenyl-1,3,3a,4,7,7a-hexahydro-2H-4,7-methanoisoindol-2-yl)-hexanamide Trifluoroacetic Acid Salt] | > 100 |  |
|  | CC12C(=O)C(C)(C(c3ccccc3)=C1c1ccccc1)C1(Br)C(=O)N(CCCCCC(=O)O)C(=O)C21 (centres unmarked) [oCOM-38, 6-(3a-bromo-4,7-dimethyl-1,3,8-trioxo-5,6-diphenyl-1,3,3a,4,7,7a-hexahydro-2H-4,7-methanoisoindol-2-yl)-hexanoic Acid] | > 100 |  |
|  | COC(=O)[C@H](CCCCN1C(=O)C2C3(C)C(=O)C(C)(C(c4ccccc4)=C3c3ccccc3)C2(Br)C1=O)NC(C)=O (stereo partly drawn) [oCOM-41, Methyl (2S)-2-acetamido-6-(3a-bromo-4,7-dimethyl-1,3,8-trioxo-5,6-diphenyl-1,3,3a,4,7,7a-hexahydro-2H-4,7-methanoisoindol-2-yl)hexanoate] | > 100 |  |
|  | Cc1noc([C@@H](N)CCCCN2C(=O)C3C4(C)C(=O)C(C)(C(c5ccccc5)=C4c4ccccc4)C3(Br)C2=O)n1 (stereo partly drawn) [oCOM-43, (1S)-1-amino-5-(3a-bromo-4,7-dimethyl-1,3,8-trioxo-5,6-diphenyl-1,3,3a,4,7,7a-hexahydro-2H-4,7-methanoisoindol-2-yl)-1-(3-methyl-1,2,4-oxadiazol-5-yl)pentane Trifluoroacetic Acid Salt] | > 100 |  |
|  | Cc1nnc([C@@H](N)CCCCN2C(=O)C3C4(C)C(=O)C(C)(C(c5ccccc5)=C4c4ccccc4)C3(Br)C2=O)o1 (stereo partly drawn) [oCOM-45, (1S)-1-Amino-5-(3a-bromo-4,7-dimethyl-1,3,8-trioxo-5,6-diphenyl-1,3,3a,4,7,7a-hexahydro-2H-4,7-methanoisoindol-2-yl)-1-(5-methyl-1,3,-oxadiazol-2-yl)pentane Trifluoroacetic Acid Salt] | > 100 |  |
| 182 to 184 °C | CC12C(=O)C(C)(C(c3ccccc3)=C1c1ccccc1)C1(Cl)C(=O)N(c3ccccc3)C(=O)C21 (centres unmarked) [oCOm-2, 3a-Chloro-3a,4,7,7a-tetrahydro-4,7-dimethyl-2,5,6-triphenyl-4,7-methano-1H-isoindole-1,3,8(2H)-trione] |  |  |
| 193 °C | CC12C(=O)C(C)(C(c3ccccc3)=C1c1ccccc1)C1(Sc3ccccc3)C(=O)N(c3ccccc3)C(=O)C21 (centres unmarked) [oCOm-4, 3a-Phenylthio-3a,4,7,7a-tetrahydro-4,7-dimethyl-2,5,6-triphenyl-4,7-methano-1H-isoindole-1,3,8(2H)-trione] |  |  |
| 186 °C | CC12C(=O)C(C)(C(c3ccccc3)=C1c1ccccc1)C1([S+]([O-])c3ccccc3)C(=O)N(c3ccccc3)C(=O)C21 (centres unmarked) [oCOm-5, 3a-Phenylsulfinyl-3a,4,7,7a-tetrahydro-4,7-dimethyl-2,5,6-triphenyl-4,7-methano-1H-isoindole-1,3,8(2H)-trione] |  |  |
| 106 °C | CC12C(=O)C(C)(C(c3ccccc3)=C1c1ccccc1)C1(S(=O)(=O)c3ccccc3)C(=O)N(c3ccccc3)C(=O)C21 (centres unmarked) [oCOm-6, 3a-Phenylsulfonyl-3a,4,7,7a-tetrahydro-4,7-dimethyl-2,5,6-triphenyl-4,7-methano-1H-isoindole-1,3,8(2H)-trione] |  |  |
| 207 °C (dec.) | CC12C(=O)C(C)(C(c3ccccc3)=C1c1ccccc1)C1(Br)C(=O)N(c3ccc(O)c([N+](=O)[O-])c3)C(=O)C21 (centres unmarked) [oCOm-11, 3a-Bromo-3a,4,7,7a-tetrahydro-4,7-dimethyl-2-(4-hydroxy-3-nitrophenyl)-5,6-diphenyl-4,7-methano-1H-isoindole-1,3,8(2H)-trione] |  |  |
|  | CC12C(=O)C(C)(C(c3ccccc3)=C1c1ccccc1)C1(Br)C(=O)N(CCC(=O)NC(CO)(CO)CO)C(=O)C21 (centres unmarked) [oCOm-24, N-(2-Hydroxy-1,1-bis(hydroxymethyl)ethyl)-3-(3a-bromo-4,7-dimethyl-1,3,8-trioxo-5,6-diphenyl-3a,4,7,7a-tetrahydro-1H-4,7-methanoisoindol-2(2H)-yl)propanamide] | > 100 | solubility (in words) [2]: decreased solubility; solubility [2]: 5000 µg/mL (≈ 8.18 mM) |
|  | CC12C(=O)C(C)(C(c3ccccc3)=C1c1ccccc1)C1(Br)C(=O)N(CCCC[C@H](N)C(=O)O)C(=O)C21 (stereo partly drawn) [oCOm-28, (2S)-2-Amino-6-(3a-bromo-4,7-dimethyl-1,3,8-trioxo-5,6-diphenyl-1,3,3a,4,7,7a-hexahydro-2H-4,7-methanoisoindol-2-yl)hexanoic Acid Trifluoroacetic Acid Salt] | > 100 | solubility (in words) [2]: water soluble |
|  | COC(=O)[C@@H](N)CCCCN1C(=O)C2C3(C)C(=O)C(C)(C(c4ccccc4)=C3c3ccccc3)C2(Br)C1=O (stereo partly drawn) [oCOm-30, Methyl (2S)-2-amino-6-(3a-bromo-4,7-dimethyl-1,3,8-trioxo-5,6-diphenyl-1,3,3a,4,7,7a-hexahydro-2H-4,7-methanoisoindol-2-yl)hexanoate Trifluoroacetic Acid Salt] | > 100 | solubility (in words) [2]: water soluble |
|  | CCOC(=O)[C@@H](N)CCCCN1C(=O)C2C3(C)C(=O)C(C)(C(c4ccccc4)=C3c3ccccc3)C2(Br)C1=O (stereo partly drawn) [oCOm-32, Ethyl (2S)-2-amino-6-(3a-bromo-4,7-dimethyl-1,3,8-trioxo-5,6-diphenyl-1,3,3a,4,7,7a-hexahydro-2H-4,7-methanoisoindol-2-yl)hexanoate Trifluoroacetic Acid Salt] | > 100 | solubility (in words) [2]: water soluble |
|  | CCCOC(=O)[C@@H](N)CCCCN1C(=O)C2C3(C)C(=O)C(C)(C(c4ccccc4)=C3c3ccccc3)C2(Br)C1=O (stereo partly drawn) [oCOm-34, nPropyl (2S)-2-amino-6-(3a-bromo-4,7-dimethyl-1,3,8-trioxo-5,6-diphenyl-1,3,3a,4,7,7a-hexahydro-2H-4,7-methanoisoindol-2-yl)hexanoate Trifluoroacetic Acid Salt] | > 100 | solubility (in words) [2]: water soluble |
|  | COC(=O)[C@@H](N)CCCN1C(=O)C2C3(C)C(=O)C(C)(C(c4ccccc4)=C3c3ccccc3)C2(Br)C1=O (stereo partly drawn) [oCOm-40, Methyl (2S) 2-amino-5-(3a-bromo-4,7-dimethyl-1,3,8-trioxo-5,6-diphenyl-1,3,3a,4,7,7a-hexahydro-2H-4,7-methanoisoindol-2-yl)-pentanoate Trifluoroacetic Acid Salt] | > 100 | solubility (in words) [2]: water soluble |
|  | CC12C(=O)C(C)(C(c3ccccc3)=C1c1ccccc1)C1(Br)C(=O)N(Cc3cn(CCOC4OC(CO)C(O)C(O)C4O)nn3)C(=O)C21 [oCOm-49, 3a-Bromo-3a,4,7,7a-tetrahydro-4,7-dimethyl-2-[[1-(2-α-D-mannopyranosyloxy)ethyl]-1H-1,2,3-triazol-4yl]methyl-5,6-diphenyl-4,7-methano-1H-isoindole-1,3,8(2H)-trione] | > 200 | solubility (in words) [2]: decreased water solubility; solubility [2]: 900 µg/mL (≈ 1.24 mM) |

| SMILES | melting point | EC50 [1, 3] [µM] | also measured |
| --- | --- | --- | --- |
| CC(=O)OCCN1C(=O)c2c(C)c(-c3ccccc3)c(-c3ccccc3)c(C)c2C1=O [BP-16, 4,7-Dimethyl-2-(2-acetoxyethyl)-5,6-diphenyl-1H-isoindole-1,3(2H)-dione] | 155 °C |  |  |
| Cc1c2c(c(C)c(-c3ccccc3)c1-c1ccccc1)C(=O)N(CCN(CCNC(=O)OC(C)(C)C)C(=O)OC(C)(C)C)C2=O [BP-22, Tert-Butyl (3-((tert-butoxycarbonyl)amino)ethyl)(2-(4,7-dimethyl-1,3-dioxo-5,6-diphenylisoindolin-2-yl)ethyl)carbamate] | 202 to 205 °C |  |  |
| CC(C)(C)OC(=O)N[C@@H](CCCCN1C(=O)C2C3(C)C(=O)C(C)(C(c4ccccc4)=C3c3ccccc3)C2(Br)C1=O)C(=O)O (stereo partly drawn) [oCOm-27, (2S)-2-tert-butoxycarbonylamino-6-(3a-bromo-4,7-dimethyl-1,3,8-trioxo-5,6-diphenyl-1,3,3a,4,7,7a-hexahydro-2H-4,7-methanoisoindol-2-yl) hexanoic acid] | 87 to 92 °C |  |  |

— US11072584B2, “Carbon monoxide releasing norbornenone compounds” (OTAGO INNOVATION LIMITED, priority 2015, dated 2021)
